In patent US20260078120A1, “SUBSTITUTED PYRIDOPYRIMIDINONES” (MIRATI THERAPEUTICS, INC., priority 2022, published 2026) one finds IC50 data, which are given here for 12 compounds.

Holding throughout (assay type): cell-based
Experiment [1] deals with T47D (PI3Kα H1047R mutant) cells. As to the kind of experiment: CellTiter-Glo 2.0 luminescent cell viability assay, 72 hours, T47D cells. To be noted: Homo sapiens, T47D, 72 h, T47D (PI3Kα H1047R mutant) cells, CellTiter-Glo, approximately 72 hours; read-out: T47D (H1047R mutant) Viability IC50. A digest of the protocol: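 Viability was measured by CellTiter-Glo 2.0 luminescence after approximately 72 h of compound exposure at 37° C. Plating was 1000 cells per well the day before dosing, with ten 1:4 dilutions from a 10 µM top concentration. Values as percent of vehicle were fitted by variable-slope log(inhibitor) regression to give IC50.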
(Cellular ATP, detected with luciferase, serves as a proxy for viable cell number.)

In experiment [2] the test system is SKBR3 (PI3Kα wild type) cells. As to the kind of experiment: Inhibition of pAKT formation, alphaLISA SureFire Ultra AKT 1/2/3 (pS473), SKBR3 cells. The conditions noted are these: Homo sapiens, SK-BR-3; Inhibition of pAKT in SKBR3 (PI3Kα wild type) cells; read-out: SKBR3 (WT) pAKT IC50 (nM) (H1047R mutant) IC50. A digest of the protocol:
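Cells seeded in HBSS (SKBR3 12,000/well, MKN1 24,000/well) and dosed immediately, 10-point 1:4 series from […], for about 1 h or 24 h at 37 °C. pAKT S473 by alphaLISA after lysis; signal normalised to alpelisib and DMSO controls, IC50 by four-parameter fit.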
In general terms: In Alpha technology, singlet oxygen from a donor bead excites a nearby acceptor bead.

Experiment [3] concerns MKN1 (PI3Kα E545K mutant) cells. The experiment is described as follows: Inhibition of pAKT formation, alphaLISA SureFire Ultra AKT 1/2/3 (pS473), MKN1 cells. To be noted: Homo sapiens, MKN-1; MKN1 (PI3Kα E545K mutant) cells; inhibition of pAKT (pS473) formation; approximately one hour or 24 hours treatment; read-out: MKN1 (E545K) pAKT IC50. Here is the method:
The ability of a compound of Formula (I) to inhibit the formation of pAKT was measured using alphaLISA Surefire Ultra AKT 1/2/3 (pS473) Assay Kit (#ALSU-PAKT-B50K) was obtained from Perkin Elmer (Waltham, MA).
To prepare assay plates for pAKT alphaLISA assays, cells were trypsinized, resuspended in fresh media, and viable cells were counted utilizing trypan blue exclusion. Prior to seeding, cells were washed with PBS and resuspended in HBSS (Gibco, #14025092). T47D (12,000/w), SKBR3(12,000/w), or MKN1(24,000/w) cells were seeded at 12 μl per well in a solid white flat bottom 384 cell culture plate (Perkin Elmer #6007680).
Immediately after seeding, cells were dosed using an Echo Liquid Handler (Beckman Coulter) with compounds at a […] starting concentration and serially diluted (1:4) for a total of 10 concentrations. […] Cells were incubated with the compounds (solubilized in DMSO) for approximately one hour or 24 hours at 37° C. After one hour (or 24 hours) of treatment, cells were lysed with 3 μl of the 5× lysis buffer (provided and incubated at room temperature for 15 min on a microtiter plate shaker). Once cells were sufficiently lysed, 7.5 μl of the acceptor bead mix (made using the manufacturers recommended dilutions) was added to each well and left on the microtiter plate shaker for 1 min prior to incubating plates at room temperature for one hour, in the absence of light. After one hour of incubation with the acceptor bead mix, 7.5 μl of the donor bead mix (made using the manufacturers recommended dilutions) was added to each well and left on the microtiter plate shaker for 1 min prior to incubating plates at room temperature overnight in the absence of light. Plates were then imaged the following day using a CLARIOstar microplate reader (BMG Labtech, Germany).
Percent of control values were calculated by subtracting the average signal from the positive control (alpelisib) treated wells from all treated wells (including DMSO control wells) and then divided by the average signal from the vehicle DMSO treated control wells. Percent of vehicle control values were plotted as log (inhibitor) vs. response-Variable slope (four parameters) for curve fitting and IC50 values were determined using XLfit.
Key: N.D. =not determined

The test system of experiment [4] is T47D (PI3Kα H1047R mutant) cells. The experiment is described as follows: Inhibition of pAKT formation, alphaLISA SureFire Ultra AKT 1/2/3 (pS473), T47D cells. To be noted: Homo sapiens, T47D, T47D (PI3Kα H1047R mutant) cells; inhibition of pAKT (pS473) formation; approximately one hour or 24 hours treatment; read-out: T47D pAKT (H1047R mutant) IC50. A digest of the protocol: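 AKT Ser473 phosphorylation was quantified by alphaLISA SureFire Ultra after roughly 1 h or 24 h compound exposure at 37 °C. Cells were T47D (12,000/well in HBSS), treated with a 10-point 1:4 series starting at 10.4 μM. Percent of control used alpelisib background and DMSO reference, and IC50 came from four-parameter logistic fitting.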

Experiment [5] concerns MKN1 (PI3Kα E545K mutant) cells. The experiment is described as follows: CellTiter-Glo 2.0 luminescent cell viability assay, 72 hours, MKN1 cells. The conditions noted are these: Homo sapiens, MKN-1; MKN1 (PI3Kα E545K mutant) cells, CellTiter-Glo, approximately 72 hours; read-out: MKN1 (E545K) Viability IC50. Here is the method:
This Example illustrates that exemplary compounds of the present invention decrease the viability of cells.
The ability of a compound of Formula (I) to decrease the viability of cells was measured using CellTiter-Glo 2.0 (CTG) Luminescent Cell Viability Assay (#G9241) obtained from Promega (Madison, WI).
To prepare assay plates for viability assays, cells were trypsinized, resuspended in fresh media, and viable cells were counted utilizing trypan blue exclusion. T47D, SKBR3, or MKN1 cells were seeded at 1000 cells in 30 μl per well in a solid white flat bottom 384 cell culture plate (Perkin Elmer #6007680) and incubated at 37° C. overnight.
Assay day 1, cells were dosed using an Echo Liquid Handler (Beckman Coulter) with compounds at a 10 um starting concentration and serially diluted (1:4) for a total of 10 concentrations. Cells were incubated for approximately 72 hours with the compounds (solubilized in DMSO) at 37° C. After 72 hours of treatment, cell plates were equilibrated to room temperature before adding 15 μl of CTG to each well, plates were then covered in aluminum foil to protect from light, incubated at room temperature for 30 minutes on a microtiter plate shaker, and luminescence readings were collected using a CLARIOstar microplate reader (BMG Labtech, Germany). Percent of vehicle control values were plotted as log (inhibitor) vs. response-Variable slope (four parameters) for curve fitting and IC50 values were determined using XLfit.

Experiment [6] concerns SKBR3 (PI3Kα wild type) cells. As to the kind of experiment: CellTiter-Glo 2.0 luminescent cell viability assay, 72 hours, SKBR3 cells. The conditions noted are these: Homo sapiens, SK-BR-3, 72 h, SKBR3 (PI3Kα wild type) cells, CellTiter-Glo, approximately 72 hours; read-out: SKBR3 (WT) Viability IC50. A digest of the protocol: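 Viability measured via CTG luminescence following roughly 72 hours of compound exposure at 37° C. Dosing used a 10 um starting concentration diluted 1:4 over 10 points; percent-of-vehicle data fitted with a variable-slope four-parameter model for IC50.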

A value given as a limit tells only on which side of the number the result lay.

For orientation: IC50 means the midpoint of a concentration-inhibition curve. Consider `Cc1cc(C(C)Nc2cc(O)ccc2C(=O)O)c2nc(N3CCCCC3)cc(=O)n2c1` (stereo not drawn) [Example 3-8, 4-hydroxy-2-((1-(7-methyl-4-oxo-2-(piperidin-1-yl)-4H-pyrido[1,2-a]pyrimidin-9-yl)ethyl)amino)benzoic acid], for which the IC50 in experiment [1] was above 10 µM; in experiment [2], above 10000 nM; in experiment [3], above 10 µM; in experiment [4], 3 µM; in experiment [5], above 10 µM; in experiment [6], above 10 µM.

On to `Cc1cc(C(C)Oc2ccccc2C(=O)O)c2nc(N3CCCCC3)cc(=O)n2c1` (stereo not drawn) [Example 3-9, 2-(1-(7-methyl-4-oxo-2-(piperidin-1-yl)-4H-pyrido[1,2-a]pyrimidin-9-yl)ethoxy)benzoic acid], for which the IC50 in experiment [1] was above 10 µM; in experiment [2] it was 583 nM; in experiment [3] it was above 10 µM; in experiment [4], above 10 µM; in experiment [5] it was above 10 µM; in experiment [6] it was above 10 µM.

For `Cc1cc(C(C)Nc2ccccc2C#N)c2nc(N3CCCCC3)cc(=O)n2c1` (stereo not drawn) [Example 3-11, 2-((1-(7-methyl-4-oxo-2-(piperidin-1-yl)-4H-pyrido[1,2-a]pyrimidin-9-yl)ethyl)amino)benzonitrile], the IC50 in experiment [1] is above 10 µM; in experiment [2], above 10000 nM; in experiment [3], above 10 µM; in experiment [4], above 10 µM; in experiment [5], above 10 µM; in experiment [6], above 10 µM.

As for `COC(=O)c1ccccc1NC(C)c1cc(C)cn2c(=O)cc(N3CCCCC3)nc12` (stereo not drawn) [Example 3-12, methyl 2-((1-(7-methyl-4-oxo-2-(piperidin-1-yl)-4H-pyrido[1,2-a]pyrimidin-9-yl)ethyl)amino)benzoate], the IC50 was 5.76 µM in experiment [1]; 44.3 nM in experiment [2]; above 10 µM in experiment [3]; 1.97 µM in experiment [4]; above 10 µM in experiment [5]; above 10 µM in experiment [6].

On to `Cc1cc(C(C)Nc2ccccc2C(N)=O)c2nc(N3CCCCC3)cc(=O)n2c1` (stereo not drawn) [Example 3-13, 2-((1-(7-methyl-4-oxo-2-(piperidin-1-yl)-4H-pyrido[1,2-a]pyrimidin-9-yl)ethyl)amino)benzamide], for which the IC50 in experiment [1] was above 10 µM; in experiment [2], above 10000 nM; in experiment [3], 3.99 µM; in experiment [4], 1.06 µM; in experiment [5] it was above 10 µM; in experiment [6], above 10 µM.

Turning to `CNC(=O)c1ccccc1NC(C)c1cc(C)cn2c(=O)cc(N3CCCCC3)nc12` (stereo not drawn) [Example 3-14, N-methyl-2-((1-(7-methyl-4-oxo-2-(piperidin-1-yl)-4H-pyrido[1,2-a]pyrimidin-9-yl)ethyl)amino)benzamide], the IC50 in experiment [1] is 1.36 µM; in experiment [2] it was above 10000 nM; in experiment [3], 2.91 µM; in experiment [4], 4.54 µM; in experiment [5], above 10 µM; in experiment [6], above 10 µM.

`Cc1cc(C(C)Nc2ccccc2C(=O)N(C)C)c2nc(N3CCCCC3)cc(=O)n2c1` (stereo not drawn) [Example 3-15, N,N-dimethyl-2-((1-(7-methyl-4-oxo-2-(piperidin-1-yl)-4H-pyrido[1,2-a]pyrimidin-9-yl)ethyl)amino)benzamide]: the IC50 was above 10 µM in experiment [1]; above 10000 nM in experiment [2]; above 10 µM in experiment [3]; above 10 µM in experiment [4]; above 10 µM in experiment [5]; above 10 µM in experiment [6].

As for `Cc1cc(C(C)Nc2ccccc2O)c2nc(N3CCCCC3)cc(=O)n2c1` (stereo not drawn) [Example 3-16, 9-(1-((2-hydroxyphenyl)amino)ethyl)-7-methyl-2-(piperidin-1-yl)-4H-pyrido[1,2-a]pyrimidin-4-one], the IC50 was above 10 µM in experiment [1]; above 10000 nM in experiment [2]; above 10 µM in experiment [3]; above 10 µM in experiment [4]; above 10 µM in experiment [5]; 9.3 µM in experiment [6].

As to `Cc1cc(C(C)Nc2cccc3cn[nH]c23)c2nc(N3CCCCC3)cc(=O)n2c1` (stereo not drawn) [Example 3-17, 9-(1-((1H-indazol-7-yl)amino)ethyl)-7-methyl-2-(piperidin-1-yl)-4H-pyrido[1,2-a]pyrimidin-4-one], the IC50 in experiment [1] was above 10 µM; in experiment [2], above 10000 nM; in experiment [3] it was above 10 µM; in experiment [4], above 10 µM; in experiment [5], above 10 µM; in experiment [6] it was 9.77 µM.

Consider `Cc1cc(C(C)Nc2ccccc2C(O)C(F)(F)F)c2nc(N3CCCCC3)cc(=O)n2c1` (stereo not drawn) [Example 3-18, 7-methyl-2-(piperidin-1-yl)-9-(1-((2-(2,2,2-trifluoro-1-hydroxyethyl)phenyl)amino)ethyl)-4H-pyrido[1,2-a]pyrimidin-4-one], for which the IC50 is 4.2 µM in experiment [1]; above 10000 nM in experiment [2]; above 10 µM in experiment [3]; 1.39 µM in experiment [4]; above 10 µM in experiment [5]; above 10 µM in experiment [6].

Regarding `Cc1cc(C(C)Nc2ccc(Cl)nc2C(=O)O)c2nc(N3CCCCC3)cc(=O)n2c1` (stereo not drawn) [Example 3-19, 6-chloro-3-((1-(7-methyl-4-oxo-2-(piperidin-1-yl)-4H-pyrido[1,2-a]pyrimidin-9-yl)ethyl)amino)picolinic acid], the IC50 was 0.367 µM in experiment [1]; 2800 nM in experiment [2]; 1.19 µM in experiment [3]; 0.0383 µM in experiment [4]; above 10 µM in experiment [5]; above 10 µM in experiment [6].

Take `Cc1cc(C(C)Nc2ccccc2C(F)(F)CO)c2nc(N3CCCCC3)cc(=O)n2c1` (stereo not drawn) [Example 3-20, 9-(1-((2-(1,1-difluoro-2-hydroxyethyl)phenyl)amino)ethyl)-7-methyl-2-(piperidin-1-yl)-4H-pyrido[1,2-a]pyrimidin-4-one]: the IC50 in experiment [1] is above 10 µM; in experiment [2], above 10000 nM; in experiment [3] it was above 10 µM; in experiment [4], 1.12 µM; in experiment [5], above 10 µM; in experiment [6], above 10 µM.
